Measured values published in PMC7529893, “Structural basis for substrate recognition and chemical inhibition of oncogenic MAGE ubiquitin ligases” (Nature Communications, 2020).

Molecular target: T1, MAGE-A11:PCF11 interaction (GST-MAGE-A11 and FAM-PCF11_4) (Homo sapiens, UniProt P43364)
T1 construct: GST-MAGE-A11 MHD (human MAGE-A11 MHD amino acid 218-429); made in house; host or cells: E. coli BL21(DE3)
T1 sequence (P43364 218-429): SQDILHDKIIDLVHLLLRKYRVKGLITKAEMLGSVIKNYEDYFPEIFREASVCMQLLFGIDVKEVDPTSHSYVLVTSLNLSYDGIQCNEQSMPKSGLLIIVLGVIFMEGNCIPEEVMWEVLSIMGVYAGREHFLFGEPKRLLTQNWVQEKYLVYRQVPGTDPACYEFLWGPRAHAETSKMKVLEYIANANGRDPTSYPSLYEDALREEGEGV
Assay: TR-FRET primary / single point screen at 15 µM
Format: binding
Procedure, shortened: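 TR-FRET 520/490 nm emission ratio was read after 90 min at room temperature. Wells held 5 nM GST-MAGE-A11, 5 nM Tb-anti-GST, 200 nM FAM-PCF11_4 and 15 µM compound in Tris pH 7.5 buffer with MgCl2, BSA and DTT. %Inhibition was scaled to DMSO and minus-MAGE-A11 controls.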

[1] = single point TR-FRET screening of quinoline compounds against MAGE-A11:PCF11, 15 µM
[2] = single point TR-FRET screening of 797 quinoline compounds against MAGE-A11:PCF11

Row | Compound | percent inhibition (TR-FRET) [1] | percent inhibition (TR-FRET) [2]
1 | CCCN(CCCNc1ccnc2cc(C(F)(F)F)ccc12)CC1CCOC1 (stereo not drawn) [SJ000575190] | 1.787 | 
2 | Clc1ccc2c(NCCCN(Cc3ccccc3)Cc3ccccc3)ccnc2c1 [SJ000361166] | 14.7648 | 
3 | Clc1ccc2c(NCCCNCc3cc4ccccc4o3)ccnc2c1 [SJ000521029] | 17.9065 | 
4 | O=C(O)c1ccccc1CN(CCCNc1ccnc2cc(Cl)ccc12)Cc1ccccc1 [SJ000361180] | 9.598 | 
5 | c1ccc(-c2ccc3c(NCCCNCc4ccco4)ccnc3c2)cc1 [SJ000311282] | 28.689 | 
6 | CN(C)c1cc(NC(=O)CNC(C)(C)CC(C)(C)C)c2ccccc2n1 [SJ000111678] |  | 10.6249
7 | COc1ccc2ncc(S(=O)(=O)c3ccc(C)cc3)c(N3CCN(Cc4ccccc4)CC3)c2c1 [SJ000117085] |  | -82.2209
8 | CCN1CCN(c2c(C(=O)c3ccc(C)cc3)cnc3ccc(OC)cc23)CC1 [SJ000247282] |  | 3.9003
9 | CCOC(=O)c1cnc2c(C)c(Cl)ccc2c1NCCCN1CCOCC1 [SJ000129912] | -23.261 | 
10 | Cc1ccc2ncc(S(=O)(=O)c3ccccc3)c(N3CCN(c4ccccc4F)CC3)c2c1 [SJ000315092] |  | -33.4837
11 | FC(F)(F)c1cccc(CN(CCCCNc2ccnc3cc(Cl)ccc23)Cc2ccccc2)c1 [SJ000520455] |  | 26.3784
12 | CCN1CCN(c2c(S(=O)(=O)c3ccc(C)cc3)cnc3ccc(Cl)cc23)CC1 [SJ000083966] |  | -4.358
13 | c1coc(CNCCCNc2ccnc3cc(CC4CCCCC4)ccc23)c1 [SJ000311250] | 40.6616 | 
14 | CCCN(CCCNc1ccnc2cc(C(F)(F)F)ccc12)Cc1cccc(C(F)(F)F)c1 [SJ000520471] | 13.0224 | 
15 | CCCN(CCCNc1ccnc2cc(C(F)(F)F)ccc12)Cc1ccccc1C(=O)O [SJ000523073] | 16.8563 | 
16 | CCCNCCCNc1ccnc2cc(C(F)(F)F)ccc12 [SJ000361123] | 12.8181 | 
17 | CC(=O)Nc1ccc(S(=O)(=O)N2CCN(c3ccnc4cc(Cl)ccc34)CC2)cc1 [SJ000193862] |  | -16.1911

Row | Compound | percent inhibition (TR-FRET) [1] | percent inhibition (TR-FRET) [2]
18 | COc1cccc(CN2CCC(Nc3ccnc4cc(Cl)ccc34)CC2)c1O [SJ000357525] |  | 9.995
19 | O=S(=O)(c1ccccc1)c1cnc2ccc(Cl)cc2c1N1CCN(c2ccccc2F)CC1 [SJ000315176] |  | -5.441
20 | FC(F)(F)c1ccc2c(NCCCNCc3ccco3)ccnc2c1 [SJ000361113] | 18.0466 | 
21 | COc1ccc(S(=O)(=O)c2cnc3cc(OC)c(OC)cc3c2N2CCN(C)CC2)cc1 [SJ000083955] |  | 0.8227
22 | Clc1ccc2c(NCCCNCc3cc(Br)cs3)ccnc2c1 [SJ000521028] | 22.1075 | 
23 | Clc1ccc2c(NCCCCN(Cc3ccccc3)Cc3ccc4c(c3)OCO4)ccnc2c1 [SJ000522723] |  | 16.5062
24 | CCOc1ccc2ncc(S(=O)(=O)c3ccc(C)cc3)c(N3CCN(c4ccccc4F)CC3)c2c1 [SJ000117077] |  | 5.159
25 | CN(C)c1cccc(Oc2ccc3c(NCCCNCc4ccco4)ccnc3c2)c1 [SJ000311230] | 63.4168 | 
26 | Clc1ccc2c(NCCCCN(Cc3ccccc3)Cc3ccccc3)ccnc2c1 [SJ000522718] |  | 17.3464
27 | Clc1ccc2c(NC3CCN(CCCc4ccccc4)CC3)ccnc2c1 [SJ000523104] |  | 20.6486
28 | FC(F)(F)c1cc(-c2ccc3c(NCCCNCc4ccco4)ccnc3c2)cc(C(F)(F)F)c1 [SJ000311270] | 59.7059 | 
29 | Cn1cc(CNCCCNc2ccnc3cc(Cl)ccc23)c2ccccc21 [SJ000521020] | 18.4667 | 
30 | Cn1ccnc1CNCCCNc1ccnc2cc(Cl)ccc12 [SJ000521040] | 1.449 | 
31 | CCN1CCN(c2c(S(=O)(=O)c3ccc(C)c(C)c3)cnc3ccc(OC)cc23)CC1 [SJ000247335] |  | -4.579
32 | Cc1cc(N2CCN(CC(O)CO)CC2)c2ccccc2n1 (stereo not drawn) [SJ000227653] |  | -4.954
33 | O=[N+]([O-])c1ccc(CN(CCCNc2ccnc3cc(Cl)ccc23)Cc2ccccc2)cc1 [SJ000361179] | 20.1971 | 

More lines, now with the values ahead:

Row | percent inhibition (TR-FRET) [1] | percent inhibition (TR-FRET) [2] | Compound
34 | 14.1686 |  | CCCN(CCCNc1ccnc2cc(Cl)ccc12)CC(CC)CC [SJ000522752]
35 | 22.2827 |  | CCCN(CCCNc1ccnc2cc(C(F)(F)F)ccc12)CC(C)CC (stereo not drawn) [SJ000523081]
36 | 30.6641 |  | CCCN(CCCNc1ccnc2cc(C(F)(F)F)ccc12)CC(CC)CC [SJ000361269]
37 |  | -340.253 | COc1ccc2nc3cc(Cl)ccc3c(NCCCNCCC(C)c3ccccc3)c2c1 (stereo not drawn) [SJ000523027]
38 | 30.2293 |  | CCCN(CCCNc1ccnc2cc(Cl)ccc12)Cc1ccc(-c2ccccc2)cc1 [SJ000523039]
39 | 13.3074 |  | CCCN(CCCNc1ccnc2cc(Cl)ccc12)Cc1cccnc1Br [SJ000523006]
40 |  | -210.345 | CCCCCN(CCC)CCCNc1c2ccc(Cl)cc2nc2ccc(OC)cc12 [SJ000520941]
41 |  | -150.831 | CCCN(CCCNc1c2ccc(Cl)cc2nc2ccc(OC)cc12)Cc1cc(OC)ccc1O [SJ000520933]
42 | 26.6585 |  | CCCN(CCCNc1ccnc2cc(Cl)ccc12)Cc1cc(OC)ccc1F [SJ000522996]
43 |  | -3.378 | CCCN(CCCCNc1ccnc2cc(Cl)ccc12)Cc1c[nH]c2ccccc12 [SJ000311204]
44 | 17.481 |  | CCCN(CCCNc1ccnc2cc(Cl)ccc12)Cc1cccc(C(F)(F)F)c1 [SJ000523013]
45 |  | 34.5391 | CC(C)(C)CCN(CCCCNc1ccnc2cc(Cl)ccc12)Cc1ccccc1 [SJ000357537]
46 | 18.1434 |  | CCCN(CCCNc1ccnc2cc(Cl)ccc12)Cc1cccc2c1OCO2 [SJ000357594]
47 | 3.483 |  | CCCN(CCCNc1ccnc2cc(Cl)ccc12)Cc1ccco1 [SJ000357458]
48 |  | -229.025 | COc1ccc2nc3cc(Cl)ccc3c(NCCCNCc3ccc(C)o3)c2c1 [SJ000361089]
49 |  | -241.432 | CCCN(CCCNc1c2ccc(Cl)cc2nc2ccc(OC)cc12)Cc1ccc(OC)cc1 [SJ000520943]
50 | 11.9552 |  | CCCN(CCCNc1ccnc2cc(Cl)ccc12)Cc1nccs1 [SJ000357454]
51 | 5.164 |  | CCCN(CCCNc1ccnc2cc(C(F)(F)F)ccc12)Cc1scnc1C [SJ000575179]
52 | 29.3392 |  | CCCN(CCCNc1ccnc2cc(Cl)ccc12)Cc1c[nH]c2ccc(F)cc12 [SJ000522992]
53 |  | -1.698 | Clc1ccc2c(NCCCCN(Cc3ccccc3)Cc3nccs3)ccnc2c1 [SJ000520448]
54 | -2.258 |  | CCCN(CCCNc1c2ccc(Cl)cc2nc2ccc(OC)cc12)Cc1c(F)c(F)c(F)c(F)c1F [SJ000522734]
55 |  | -133.032 | COC(=O)c1ccc(CNCCCNc2c3ccc(Cl)cc3nc3ccc(OC)cc23)cc1 [SJ000522957]
56 | 21.7574 |  | CCCN(CCCNc1ccnc2cc(C(F)(F)F)ccc12)Cc1ccc(OC)c(F)c1 [SJ000521013]
57 |  | -193.541 | CCCN(CCCNc1c2ccc(Cl)cc2nc2ccc(OC)cc12)Cc1ccc2c(c1)OCO2 [SJ000520940]
